≈ marks a conversion by molar mass, not a printed value.
Key:
[1] = system: Methicillin-resistant S. aureus ATCC 43300; assay: microbe, parasite or virus in culture; settings: ATCC 43300, 24 h
In short: (§1)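 Broth microdilution in Mueller Hinton broth with twofold serial dilutions of compound from 8 to 0.003 µg mL^−1.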

Cytotoxicity MTT assay [2] = format: cell-based, human; settings: human
Method: (§2) Compound cytotoxicity was evaluated against HepG2 (ATCC-®HB-8065 liver hepatoceullular carcinoma) and HEK293 (ATCC®CRL-1573, embryonic kidney) human cell lines using standard (3-(4,5-dimethylthiazol-2-yl)−2,5-diphenyltetrazolium bromide (MTT) assay protocol with slight changes. In brief, HepG2 and HEK293 cells (assessed annually for mycoplasma contamination) were seeded as 1.5 × 10^4 cells per well in a clear 96-well tissue culture treated plate in a final volume of 100 μL in Dulbecco’s Modified Eagle Medium (DMEM)(GIBCO-Invitrogen #11995-073), in which 1% of FBS was added. Cells were incubated for 24 h at 37 °C, 5% CO2 to allow cells to attach to the plates. Compounds prepared at 100 µM to 0.046 µM in threefold dilutions were added into each well and incubated for 24 h at 37 °C, 5% CO2. After the incubation, 0.4 mg mL^−1 MTT (3-(4,5-dimethylthiazol-2-yl)−2,5-diphenyltetrazolium bromide) (Invitrogen) was added to each well. The plates were then incubated for 2 h at 37 °C, 5% CO2. The media was removed, and purple formazan crystals were resuspended in 60 μL of DMSO. The absorbance was read at 570 nm using a Polarstar Omega plate reader. The data was then analysed by Prism software. Results are presented as the average percentage of control ± S.D. for each set of duplicate wells using the following equation: percent viability = (ABSTEST – ABSPOSITIVE CTRL / ABSUNTREATED –ABS POSITIVE CTRL)×100.

Cytotoxicity MTT assay [3] = format: cell-based, human; settings: human; remark: listed apart in the source
Method: as §2, with “Compounds prepared at 100 µM to 0.046 µM in threefold dilutions were added into each well and incubated for 24 h at 37 °C, 5% CO2.” left out

[4] = system: Vancomycin-resistant (VanA) Enterococcus faecium ATCC 51559; assay: microbe, parasite or virus in culture; settings: ATCC 51559
In short: as §1

[5] = system: Multi-drug-resistant S. pneumoniae ATCC 700677; assay: microbe, parasite or virus in culture; settings: ATCC 700677
In short: as §1

[6] = system: Vancomycin-intermediate S. aureus NRS1; assay: microbe, parasite or virus in culture; settings: Vancomycin-intermediate NRS1
In short: as §1

Haemolysis assay = format: cell-based; settings: human, whole blood
Method: Haemolytic activity was measured as previously described with slight modifications, [45]. Fresh human venal blood was collected from healthy volunteers and pretreated with the anticoagulant sodium citrate. Serial twofold dilutions of each antibiotic, dissolved in 0.9% NaCl solution, were added to fresh human whole blood (50% final, vol:vol) to the final volume of 80 μL and incubated at 37 °C for 3 h on a horizontal shaker at 200 rpm. For negative and positive controls, human whole blood in 0.9% NaCl solution (A blank) and in sdH2O (A water) were used, respectively. After incubation, both test and A blank were mixed with 1 mL 0.9% NaCl solution, or sdH2O for the complete […] A water. After centrifugation of samples at 2500 rpm (700 × g) for 5 min, the release of haemoglobin was monitored by measuring the absorbance (A sample) of the supernatant at 540 nm using BMG Labtech PolarStar Omega multimode reader. The percentage of haemolysis was calculated according to the equation: %haemolysis=Asample-Ablank∕Awater-Ablank×100

[7] = system: Vancomycin-resistant S. aureus NARSA VRS4; assay: microbe, parasite or virus in culture; format: cell-based, Staphylococcus aureus; settings: Vancomycin-resistant NARSA VRS4

## CCCCCCCCCCCCCC(=O)NCC(=O)N[C@@H](CO)C(=O)N[C@@H](CO)C(=O)N[C@@H](CCCCN)C(=O)N[C@@H](CO)C(=O)N1CCC[C@H]1C(=O)N[C@@H](CO)C(=O)N[C@@H](CCCCN)C(=O)N[C@@H](CCCCN)C(=O)N[C@@H](CCCCN)C(=O)N1CCC[C@H]1C(=O)NCC(=O)N[C@@H](CC(=O)O)C(=O)N[C@@H](CSSCCNC(=O)[C@H]1NC(=O)[C@H]2NC(=O)[C@H](NC(=O)[C@@H]3NC(=O)[C@H](CC(N)=O)NC(=O)[C@H](NC(=O)[C@@H](CC(C)C)NC)[C@H](O)c4ccc(c(Cl)c4)Oc4cc3cc(c4O[C@@H]3O[C@H](CO)[C@@H](O)[C@H](O)[C@H]3O[C@H]3C[C@](C)(N)[C@H](O)[C@H](C)O3)Oc3ccc(cc3Cl)[C@H]2O)c2ccc(O)c(c2)-c2c(O)cc(O)cc21)C(N)=O [Compound 11]
[1]
  MIC MRSA: 0.16 µg/mL (≈ 0.0513 µM)
Cytotoxicity MTT assay [2]
  CC50 at 24 h: 18 µM
Cytotoxicity MTT assay [3]
  CC50 at 24 h: 9 µM
[4]
  MIC VRE: 0.125 µg/mL (≈ 0.04 µM)
[5]
  MIC MDR S.P.: 0.09 µg/mL (≈ 0.0288 µM)
[6]
  MIC VISA: 0.5 µg/mL (≈ 0.16 µM)

## CCCCCCCCCCCCCC(=O)NCC(=O)N[C@@H](CO)C(=O)N[C@@H](CO)C(=O)N[C@@H](CCCCN)C(=O)N[C@@H](CO)C(=O)N1CCC[C@H]1C(=O)N[C@@H](CO)C(=O)N[C@@H](CCCCN)C(=O)N[C@@H](CCCCN)C(=O)N[C@@H](CCCCN)C(=O)N1CCC[C@H]1C(=O)N[C@@H](CSSCCNC(=O)[C@H]1NC(=O)[C@H]2NC(=O)[C@H](NC(=O)[C@@H]3NC(=O)[C@H](CC(N)=O)NC(=O)[C@H](NC(=O)[C@@H](CC(C)C)NC)[C@H](O)c4ccc(c(Cl)c4)Oc4cc3cc(c4O[C@@H]3O[C@H](CO)[C@@H](O)[C@H](O)[C@H]3O[C@H]3C[C@](C)(N)[C@H](O)[C@H](C)O3)Oc3ccc(cc3Cl)[C@H]2O)c2ccc(O)c(c2)-c2c(O)cc(O)cc21)C(N)=O [Compound 12]
[1]
  MIC MRSA: 0.09 µg/mL (≈ 0.0305 µM)
Cytotoxicity MTT assay [2]
  CC50 at 24 h: 41 µM
Cytotoxicity MTT assay [3]
  CC50 at 24 h: 26 µM
[4]
  MIC VRE: 0.007 µg/mL (≈ 0.00237 µM)
[5]
  MIC MDR S.P.: 0.06 µg/mL (≈ 0.0203 µM)
[6]
  MIC VISA: 0.5 µg/mL (≈ 0.17 µM)

## CCCCCCCCCCC(=O)N[C@@H](CCCCN)C(=O)N[C@@H](CCCCN)C(=O)N[C@@H](CCCCNC(=O)[C@H]1NC(=O)[C@H]2NC(=O)[C@H](NC(=O)[C@@H]3NC(=O)[C@H](CC(N)=O)NC(=O)[C@H](NC(=O)[C@@H](CC(C)C)NC)[C@H](O)c4ccc(c(Cl)c4)Oc4cc3cc(c4O[C@@H]3O[C@H](CO)[C@@H](O)[C@H](O)[C@H]3O[C@H]3C[C@](C)(N)[C@H](O)[C@H](C)O3)Oc3ccc(cc3Cl)[C@H]2O)c2ccc(O)c(c2)-c2c(O)cc(O)cc21)C(=O)NC [Compound 22, nC10CO-KK-K(Vancomycin)-NHMe]
[1]
  MIC MRSA: 0.015 µg/mL (≈ 0.00744 µM)
Cytotoxicity MTT assay [2]
  CC50 at 24 h: 47 µM
Cytotoxicity MTT assay [3]
  CC50 at 24 h: 80 µM
[4]
  MIC VRE: 4 µg/mL (≈ 1.98 µM)
[5]
  MIC MDR S.P.: 0.015 µg/mL (≈ 0.00744 µM)
[6]
  MIC VISA: 0.125 µg/mL (≈ 0.062 µM)
Haemolysis assay; 100 µg mL-1
  hemolysis at 3 h: 1.9%
Haemolysis assay; 1600 µg mL-1
  hemolysis at 3 h: 2.7%
[7]
  MIC VRSA: 0.5 µg/mL (≈ 0.248 µM)

## CN[C@H](CC(C)C)C(=O)N[C@H]1C(=O)N[C@@H](CC(N)=O)C(=O)N[C@H]2C(=O)N[C@H]3C(=O)N[C@H](C(=O)N[C@H](C(=O)NCCCC[C@H](NC(=O)[C@H](CCCCN)NC(=O)[C@H](CCCCN)NC(C)=O)C(=O)O)c4cc(O)cc(O)c4-c4cc3ccc4O)[C@H](O)c3ccc(c(Cl)c3)Oc3cc2cc(c3O[C@@H]2O[C@H](CO)[C@@H](O)[C@H](O)[C@H]2O[C@H]2C[C@](C)(N)[C@H](O)[C@H](C)O2)Oc2ccc(cc2Cl)[C@H]1O [Compound 25, Ac-KK-K(Vancomycin)-OH]
Cytotoxicity MTT assay [2]
  CC50 at 24 h: > 500 µM
Cytotoxicity MTT assay [3]
  CC50 at 24 h: > 500 µM
[7]
  MIC VRSA: >8 µg/mL

## CCCCCCCCCC(=O)N[C@@H](CCCCN)C(=O)N[C@@H](CCCCN)C(=O)N[C@@H](CCCCN)C(=O)N[C@@H](CCCCNC(=O)[C@H]1NC(=O)[C@H]2NC(=O)[C@H](NC(=O)[C@@H]3NC(=O)[C@H](CC(N)=O)NC(=O)[C@H](NC(=O)[C@@H](CC(C)C)NC)[C@H](O)c4ccc(c(Cl)c4)Oc4cc3cc(c4O[C@@H]3O[C@H](CO)[C@@H](O)[C@H](O)[C@H]3O[C@H]3C[C@](C)(N)[C@H](O)[C@H](C)O3)Oc3ccc(cc3Cl)[C@H]2O)c2ccc(O)c(c2)-c2c(O)cc(O)cc21)C(=O)O [Compound 36, nC9CO-KKK-K(Vancomycin)-OH]
[1]
  MIC MRSA: 0.06 µg/mL (≈ 0.0284 µM)
[4]
  MIC VRE: 8 µg/mL (≈ 3.78 µM)
[5]
  MIC MDR S.P.: 0.06 µg/mL (≈ 0.0284 µM)
[6]
  MIC VISA: 0.75 µg/mL (≈ 0.354 µM)
[7]
  MIC VRSA: 0.75 µg/mL (≈ 0.354 µM)

## CCCCCCCCCCCC(=O)N[C@@H](CCCCN)C(=O)N[C@@H](CCCCN)C(=O)N[C@@H](CCCCN)C(=O)N[C@@H](CCCCNC(=O)[C@H]1NC(=O)[C@H]2NC(=O)[C@H](NC(=O)[C@@H]3NC(=O)[C@H](CC(N)=O)NC(=O)[C@H](NC(=O)[C@@H](CC(C)C)NC)[C@H](O)c4ccc(c(Cl)c4)Oc4cc3cc(c4O[C@@H]3O[C@H](CO)[C@@H](O)[C@H](O)[C@H]3O[C@H]3C[C@](C)(N)[C@H](O)[C@H](C)O3)Oc3ccc(cc3Cl)[C@H]2O)c2ccc(O)c(c2)-c2c(O)cc(O)cc21)C(=O)O [Compound 37, nC11CO-KKK-K(Vancomycin)-OH]
[1]
  MIC MRSA: 0.005 µg/mL (≈ 0.00233 µM)
[4]
  MIC VRE: 0.5 µg/mL (≈ 0.233 µM)
[5]
  MIC MDR S.P.: <0.003 µg/mL
[6]
  MIC VISA: 0.06 µg/mL (≈ 0.028 µM)
[7]
  MIC VRSA: 0.75 µg/mL (≈ 0.35 µM)

Reference: publication PMC5750218, “Protein-inspired antibiotics active against vancomycin- and daptomycin-resistant bacteria” (Nature Communications, 2018)
